For 19 compounds, IC50 results are on record in patent publication US20240109917A1 (ACTELION PHARMACEUTICALS LTD, priority 2020, published 2024).

pIC50: −log10 of the molar value.

For this experiment, the target named is His6-TEV-PDGFRβ (557-1016) (Homo sapiens (Human), UniProt P09619). The experiment in a line: PDGFRβ HTRF Assay. Format: biochemical. The conditions noted are these: read-out: PDGFR HTRF IC50. In a few lines: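 HTRF KinEASE-TK readout (665/620 nm ratio) of TK-biotin substrate phosphorylation by His-tagged PDGFRβ kinase domain. Enzyme and inhibitor preincubated 30 min, then ATP/substrate added for 3 h at room temperature before 60 min EDTA quench/detection.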
Sequence of His6-TEV-PDGFRβ (557-1016) (P09619 557-1016): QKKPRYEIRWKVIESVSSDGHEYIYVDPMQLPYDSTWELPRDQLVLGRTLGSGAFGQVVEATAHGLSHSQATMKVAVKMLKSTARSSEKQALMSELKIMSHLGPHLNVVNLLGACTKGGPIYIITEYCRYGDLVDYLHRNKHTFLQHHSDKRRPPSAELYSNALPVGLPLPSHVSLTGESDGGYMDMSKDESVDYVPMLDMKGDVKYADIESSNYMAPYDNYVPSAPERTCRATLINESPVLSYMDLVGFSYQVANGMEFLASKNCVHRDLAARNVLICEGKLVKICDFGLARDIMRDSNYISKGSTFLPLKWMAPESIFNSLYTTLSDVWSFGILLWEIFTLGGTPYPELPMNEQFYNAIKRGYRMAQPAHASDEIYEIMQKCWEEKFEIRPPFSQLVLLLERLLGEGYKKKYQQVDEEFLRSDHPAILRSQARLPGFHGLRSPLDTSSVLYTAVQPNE
Turning to `Cc1cc(C(=O)NCCN2CCCC(O)C2)sc1NC(=O)c1cnn2cc(-c3cnn(C)c3)sc12` (stereo not shown) [Example 200, N-(5-((2-(3-hydroxypiperidin-1-yl)ethyl)carbamoyl)-3-methylthiophen-2-yl)-2-(1-methyl-1H-pyrazol-4-yl)pyrazolo[5,1-b]thiazole-7-carboxamide], the pIC50 is 7.31.

Turning to `Cc1cc(C(=O)NCCCN2CCCC2(C)C)sc1NC(=O)c1cnn2cc(-c3cnn(C)c3)sc12` [Example 201, N-(5-((3-(2,2-dimethylpyrrolidin-1-yl)propyl)carbamoyl)-3-methylthiophen-2-yl)-2-(1-methyl-1H-pyrazol-4-yl)pyrazolo[5,1-b]thiazole-7-carboxamide], the pIC50 is 7.23. With `Cc1cc(C(=O)NCC(C)(C)N2CCCC2)sc1NC(=O)c1cnn2cc(-c3cnn(C)c3)sc12` [Example 202, 2-(1-methyl-1H-pyrazol-4-yl)-N-(3-methyl-5-((2-methyl-2-(pyrrolidin-1-yl)propyl)carbamoyl)thiophen-2-yl)pyrazolo[5,1-b]thiazole-7-carboxamide], the pIC50 was 5.97. In the case of `Cc1cc(C(=O)NCCN2CCC3(CCC3)CC2)sc1NC(=O)c1cnn2cc(-c3cnn(C)c3)sc12` [Example 203, N-(5-((2-(7-azaspiro[3.5]nonan-7-yl)ethyl)carbamoyl)-3-methylthiophen-2-yl)-2-(1-methyl-1H-pyrazol-4-yl)pyrazolo[5,1-b]thiazole-7-carboxamide], the negative-log IC50 (pIC50) is 7.60. For `Cc1cc(C(=O)NCCN2CCc3ccccc3C2)sc1NC(=O)c1cnn2cc(-c3cnn(C)c3)sc12` [Example 204, N-(5-((2-(3,4-dihydroisoquinolin-2 (1H)-yl)ethyl)carbamoyl)-3-methylthiophen-2-yl)-2-(1-methyl-1H-pyrazol-4-yl)pyrazolo[5,1-b]thiazole-7-carboxamide], the pIC50 is 7.72. `CCc1cc(C(=O)NCCN2CCCC23CCC3)sc1NC(=O)c1cnn2cc(-c3cnn(C)c3)sc12` [Example 205, N-(5-((2-(5-azaspiro[3.4]octan-5-yl)ethyl)carbamoyl)-3-ethylthiophen-2-yl)-2-(1-methyl-1H-pyrazol-4-yl)pyrazolo[5,1-b]thiazole-7-carboxamide]: the pIC50 is 7.40. As to `Cn1cc(-c2cn3ncc(C(=O)Nc4sc(C(=O)NCCN5CCCC56CCC6)cc4C#N)c3s2)cn1` [Example 206, N-(5-((2-(5-azaspiro[3.4]octan-5-yl)ethyl)carbamoyl)-3-cyanothiophen-2-yl)-2-(1-methyl-1H-pyrazol-4-yl)pyrazolo[5,1-b]thiazole-7-carboxamide], the pIC50 is 5.45. Take `Cn1cc(-c2cn3ncc(C(=O)Nc4cc(C(=O)NCCN5CCCC5(C)C)ccc4F)c3s2)cn1` [Example 207, N-(5-((2-(2,2-dimethylpyrrolidin-1-yl)ethyl)carbamoyl)-2-fluorophenyl)-2-(1-methyl-1H-pyrazol-4-yl)pyrazolo[5,1-b]thiazole-7-carboxamide]: the pIC50 was 9.52. `Cc1ncc(C(=O)NCCN2C[C@H]3CC[C@@H]2C3)cc1NC(=O)c1cnn2cc(-c3cnn(C)c3C)sc12` [Example 208, N-(5-((2-((1R,4S)-2-azabicyclo[2.2.1]heptan-2-yl)ethyl)carbamoyl)-2-methylpyridin-3-yl)-2-(1,5-dimethyl-1H-pyrazol-4-yl)pyrazolo[5,1-b]thiazole-7-carboxamide]: the pIC50 was 9.52. As for `Cc1ncc(C(=O)NCCN2CCCC23CCC3)cc1NC(=O)c1cnn2cc(-c3cnn(C)c3C)sc12` [Example 209, N-(5-((2-(5-azaspiro[3.4]octan-5-yl)ethyl)carbamoyl)-2-methyl-pyridin-3-yl)-2-(1,5-dimethyl-1H-pyrazol-4-yl)pyrazolo[5,1-b]thiazole-7-carboxamide], the pIC50 was 9.52. Take `Cc1ncc(C(=O)NCCN2CC3CCC2C3)cc1NC(=O)c1cnn2cc(-c3cnn(C)c3C)sc12` (stereo not shown) [Example 210, N-(5-((2-(2-azabicyclo[2.2.1]heptan-2-yl)ethyl)carbamoyl)-2-methylpyridin-3-yl)-2-(1,5-dimethyl-1H-pyrazol-4-yl)pyrazolo[5,1-b]thiazole-7-carboxamide]: the pIC50 is 9.52. For `Cc1ncc(C(=O)NCCN2C[C@H]3CC[C@@H]2C3)cc1NC(=O)c1cnn2cc(-c3cn(C)nc3C)sc12` [Example 211, N-(5-((2-((1R,4S)-2-azabicyclo[2.2.1]heptan-2-yl)ethyl)carbamoyl)-2-methylpyridin-3-yl)-2-(1,3-dimethyl-1H-pyrazol-4-yl)pyrazolo[5,1-b]thiazole-7-carboxamide] the value was 9.52; for `Cc1ncc(C(=O)NCCN2CC3CCC2C3)cc1NC(=O)c1cnn2cc(-c3cn(C)nc3C)sc12` (stereo not shown) [Example 212, N-(5-((2-(2-azabicyclo[2.2.1]heptan-2-yl)ethyl)carbamoyl)-2-methylpyridin-3-yl)-2-(1,3-dimethyl-1H-pyrazol-4-yl)pyrazolo[5,1-b]thiazole-7-carboxamide], 9.52; for `Cc1ncc(C(=O)NCCN2CCCC23CCC3)cc1NC(=O)c1cnn2cc(-c3cn(C)nc3C)sc12` [Example 213, N-(5-((2-(5-azaspiro[3.4]octan-5-yl)ethyl)carbamoyl)-2-methylpyridin-3-yl)-2-(1,3-dimethyl-1H-pyrazol-4-yl)pyrazolo[5,1-b]thiazole-7-carboxamide], 9.52. For the compound `Cc1ncc(C(=O)NCCN2CCCC23CCC3)cc1NC(=O)c1cnn2cc(-c3c(C)nn(C)c3C)sc12` [Example 214, N-(5-((2-(5-azaspiro[3.4]octan-5-yl)ethyl)carbamoyl)-2-methylpyridin-3-yl)-2-(1,3,5-trimethyl-1H-pyrazol-4-yl)pyrazolo[5,1-b]thiazole-7-carboxamide], the pIC50 was 9.52.

`Cc1ncc(NC(=O)CCCN2CCC23CCC3)cc1NC(=O)c1cnn2cc(-c3cnn(C)c3)sc12` [Example 215, N-(5-(4-(1-azaspiro[3.3]heptan-1-yl)butanamido)-2-methylpyridin-3-yl)-2-(1-methyl-1H-pyrazol-4-yl)pyrazolo[5,1-b]thiazole-7-carboxamide]: the pIC50 was 9.30. For `COCCn1cc(-c2cn3ncc(C(=O)Nc4cc(NC(=O)CCCN5CCC[C@@H]5C)cnc4C)c3s2)cn1` [Example 216, (S)-2-(1-(2-methoxyethyl)-1H-pyrazol-4-yl)-N-(2-methyl-5-(4-(2-methylpyrrolidin-1-yl)butanamido)pyridin-3-yl)pyrazolo[5,1-b]thiazole-7-carboxamide] the value was 8.82; for `Cc1ncc(C(=O)NCCN2CCCC2(C)C)cc1NC(=O)c1cnn2cc(-n3ncc4cccnc43)sc12` [Example 217, N-(5-((2-(2,2-dimethylpyrrolidin-1-yl)ethyl)carbamoyl)-2-methylpyridin-3-yl)-2-(1H-pyrazolo[3,4-b]pyridin-1-yl)pyrazolo[5,1-b]thiazole-7-carboxamide], 9.40. In the case of `Cc1ncc(C(=O)NCCN2CCCC2)cc1NC(=O)c1cnn2cc(-c3cn(C)nc3C)sc12` [Example 218, 2-(1,3-Dimethyl-1H-pyrazol-4-yl)-N-(2-methyl-5-((2-(pyrrolidin-1-yl)ethyl)carbamoyl)pyridin-3-yl)pyrazolo[5,1-b]thiazole-7-carboxamide], the pIC50 is 9.52.
